Experimental data taken from patent publication US7553858B2, “Combination of flupirtine and tramadol” (priority 2003, dated 2009).
Where two headings read alike, the source gives them in different places. Marks after values point to notes of the source that are not given here.

Columns and labels:
[1] = system: tramadol-induced emesis; assay: Emetic response in conscious mongrel dogs; format: in vivo; settings: Tramadol 14 mg/kg i.v., first 60 min, n = 5
Protocol: Mongrel dogs of both sexes weighing up to 15 kg were used. They were deprived of food overnight but allowed water ad libitum. Test compounds were administered to conscious animals by a slow infusion via the saphenous vein. Emetic responses (retches, strong salivation vomits with output) were monitored 60 min following drug administration (Borison and Wang, 1953). All dogs received 14 mg/kg tramadol i.v. repeatedly with an interval of one week. Positive responder dogs were selected and used in further experiments.

[2] = system: acetylcholine-induced writhing; assay: Acetylcholine-induced writhing in mice; format: in vivo; settings: Mus musculus
Protocol: Male mice weighing 22-24 g were maintained in groups of 4 at standard conditions (temperature 22±1° C., humidity: 40-50%, dark-light rhythm: 12/12 h) with food and water freely available.
Abdominal contractions (writhings) were induced by intraperitoneal (i.p.) injection of acetylcholine (ACh) (chloride, 5.5. mg/kg) in a volume of 10 ml/kg. Immediately thereafter, mice were placed in a plastic cage and the number of abdominal contractions (writhes) was counted for 10 min. The total number of abdominal contractions per animal and number of animals with contractions were calculated.
Drugs were prepared daily. All compounds were given orally. Tramadol hydrochloride and flupirtine maleate were administered 30 min before acetylcholine injection.
ED50 values were estimated either by the ratio of animals protected from writhings to the number of animals in groups or by the mean number of writhes in each group of animals. The values were calculated by using linear regression. The statistical analysis of differences between calculated and measured effects was carried out by the Kruscall-Wallis test. Asterisks (*) indicate the significance level p<0.05.

[3] = system: skeletal muscle tone; assay: Skeletal muscle tone in conscious rats; format: in vivo, Sprague-Dawley rats
Protocol: The experimental set-up has been described in all details in a former publication (Nickel et al. Arzn. Forsch./Drug Res. 1997; 47; 1081-6). Briefly, the measurement of skeletal muscle tone was done by recording successively the resistance of flexor and extensor muscles which counteracted the forced straightening and bending of the foot in the ankle joint. Pressure changes induced by the movements of the foot were continuously registered. Signals were analyzed on a personal computer. A corresponding computer program calculated the resistance values of flexors and extensors of the foot over 10 min recording periods.
Male Sprague-Dawley rats weighing 200-220 g were used.
Drugs (tramadol hydrochloride, flupirtine maleate) were prepared in physiological saline daily and given intraperitoneally.
The statistical analysis of differences between calculated and measured effects was carried out by the one-way ANOVA. Asterisks (*) indicate the significance level p<0.01.

[4] = system: seizures induced by subconvulsive pentetrazol doses; assay: Submaximal pentetrazol-induced seizures in mice; settings: for Intensity (scored) of seizures / Number of animals with seizures: n = 10
Protocol: Male mice weighing 22-24 g were used. Animals housed in groups of 4 at standard conditions (temperature 22° C., humidity 40-60%) with food and water freely available. Lights were on from 06.00 a.m. to 06.00 p.m. The experiments were approved by the Animal Health Committee of the University which is responsible for the care and proper use of experimental animals.
Seizures were induced by intraperitoneal administration of pentetrazol at the subconvulsive dose of 30 mg/kg. The latency of the first seizure reaction, the seizure intensity and the number of animals with seizures were calculated for the first 10 min after i.p. injection of pentetrazol. Tramadol (hydrochloride) and flupirtine (maleate) were given intraperitoneally (15 min before pentetrazol administration). Drugs were prepared daily in 0.9% saline.

[5] = Tramadol 20 mg/kg i.p., 15 min before pentetrazol 30 mg/kg i.p.
[6] = Tramadol 40 mg/kg i.p., pentetrazol 30 mg/kg i.p.
[7] = Flupirtine 10 mg/kg i.p., pentetrazol 30 mg/kg i.p.
[8] = Flupirtine 20 mg/kg i.p., pentetrazol 30 mg/kg i.p.

| SMILES | Emetic response, % of dogs [1] [%] | ED50 ([2]; read-out: oral ED50-values calculated on the basis of animals protected from writhings) [mg/kg] | ED50 ([2]; read-out: oral ED50-values calculated on the basis of reduction of number of writhings) [mg/kg] | Changes in muscle tonus (in % compared to placebo) ([3]; Tramadol 20 mg/kg i.p.) | Changes in muscle tonus (in % compared to placebo) ([3]; Tramadol 40 mg/kg i.p.) | Intensity (scored) of seizures [4, 5] | Number of animals with seizures [4, 5] | Intensity (scored) of seizures [4, 6] | Number of animals with seizures [4, 6] | effect on acute seizures induced by subconvulsive doses of pentetrazol (in words) ([4]; mice, i.p.) | ED50 ([2]; mice, oral, 30 min before ACh 5.5 mg/kg i.p., read-out: oral ED50-values calculated on the basis of animals protected from writhings) [mg/kg] | ED50 ([2]; mice, oral, 30 min before ACh 5.5 mg/kg i.p., read-out: oral ED50-values calculated on the basis of reduction of number of writhings) [mg/kg] | tramadol-induced skeletal muscle rigidity (in words) ([3]; Flupirtine 5-10 mg/kg i.p.) | Intensity (scored) of seizures [4, 7] | Number of animals with seizures [4, 7] | Intensity (scored) of seizures [4, 8] | Number of animals with seizures [4, 8] | proconvulsive activity of tramadol, in the combination (in words) ([4]; mice, i.p., flupirtine with tramadol) |
| --- | --- | --- | --- | --- | --- | --- | --- | --- | --- | --- | --- | --- | --- | --- | --- | --- | --- | --- |
| COc1cccc([C@@]2(O)CCCC[C@H]2CN(C)C)c1 (racemic) [Tramadol, trans-(+/−)-2-[(Dimethylamino)methyl]-1-(3-methoxyphenyl)cyclohexanol] | 100 | 4.87 | 4.14 | +12% | +47%* | 1.70* | 8* | 3.00* | 10* | proconvulsive effects |  |  |  |  |  |  |  |  |
| CCOC(=O)Nc1ccc(NCc2ccc(F)cc2)nc1N [Flupirtine] |  |  |  |  |  |  |  |  |  |  | 27.2 | 21 | completely abolished | 0.20 | 2 | 0.10 | 1 | almost completely attenuated |
